Here are results for 1 compound from US20230228744A1, “DRY EYE DISEASE BIOMARKERS AND THEIR USE FOR TREATMENT” (Aldeyra Therapeutics, Inc., priority 2020, published 2023).

The test system of the experiment is subjects with dry eye disease. The experiment is described as follows: Phase 2/3 (TRANQUILITY) run-in cohort, dry eye signs and symptoms (environmental dosing and dry eye chamber). The experiment is classed as in vivo, human. How it is done:
Changes over 24 hours after the first dose on Day 1 and changes over 90 minutes in the CAE will be assessed via mixed effect model for repeated measures (MMRM) of change from baseline (pre-dose Day 1), with baseline score as a covariate, and time and test article group as factors. For assessments that include both eyes, eye will be added as a factor.
Schirmer's Test will be assessed via MMRM of change from baseline (screening), with baseline score as a covariate, and pre/post dose, eye, and test article group as factors.
This study is a Phase 2/3, multi-center, randomized, double-masked, parallel design, vehicle-controlled trial designed to evaluate the efficacy and safety of 0.25% Reproxalap Ophthalmic Solution compared to vehicle in subjects with dry eye disease. Approximately twenty subjects will be enrolled in the Initial Cohort, and approximately 300 subjects will be enrolled in the Main Cohort. Male and female subjects at least 18 years of age with a subject-reported history of dry eye disease in both eyes and meeting all other eligibility criteria will be randomized to receive reproxalap or vehicle in a 1:1 ratio (approximately 150 subjects in each treatment group).
This study uses a challenge-model of dry eye disease known as a “dry eye chamber.” Challenge-model trials utilizing a controlled chamber are an FDA accepted design for pivotal endpoints. See, for example, FDA published “Dry Eye: Developing Drugs for Treatment” draft guidance; December 2020.
Dry eye chambers control relative humidity, temperature, airflow, and visual tasking in order to stress the ocular surface. Chambers simulate a “bad day” scenario in the life of a dry eye disease sufferer. Trial designs utilizing chambers are able to confirm the utility of drugs with rapid onset of action during an acute ocular surface challenge.
Secondary Endpoints: • Visual analog scale eye dryness score assessed over 24 hours after first dose on Day 1, and over 90 minutes in CAE® (Key Secondary Symptom Endpoint) • Ora Calibra® Ocular Discomfort Scale assessed over 24 hours after first dose on Day 1, and over 90 minutes in CAE® • Ocular Discomfort & 4-Symptom Questionnaire assessed over 24 hours after first dose on Day 1, and before and after CAE® • Ora Calibra® Conjunctival Allergen Challenge Ocular Itching Scale assessed over 24 hours after first dose on Day 1, and before and after CAE® • Schirmer's Test change from baseline before and after the final dose on Day 1 • Change in tear RASP levels before and after Dose 1 and 2 on Day 1 and Dose 3 on Day 2. Conjunctival redness over 24 hours after first dose on Day 1.
Visit 1 (Day −14 −16/+2, Screening) • Informed Consent and HIPAA • Demographics (e.g. gender, date of birth, race, ethnicity) • Medical/Medication & Ocular History • Urine Pregnancy Test (as needed) • Symptom Questionnaires: • a. Ocular Discomfort & 4-Symptom Questionnaire • b. Ora Calibra® Ocular Discomfort Scale • c. Ocular Dryness Visual Analog Scale • d. Ora Calibra® Conjunctival Allergen Challenge Ocular Itching Scale • Visual Acuity (ETDRS) • Slit Lamp Biomicroscopy with Conjunctival Redness assessment • Fluorescein Staining using the Ora Calibra® Corneal and Conjunctival Staining Scale • Inclusion/Exclusion Criteria Review • In-Office Vehicle Instillation by trained site staff (within 10 minutes prior to CAE® entry) • CAE® Exposure (90 minutes, vehicle administration at 45 minutes) with: • a. Ocular Dryness Visual Analog Scale every 5 minutes • b. Ora Calibra® Ocular Discomfort Scale every 5 minutes • c. Conjunctival Redness Photography at 0, 5, 10, 15, 20, 30, 45 (before 45-minute dose), 50, 55, 60, 65, 75, 90 minutes (+/−2 minutes) via digital photography • Slit Lamp Biomicroscopy with Conjunctival Redness assessment • Schirmer Test • Intraocular Pressure • Dilated Exam • Schedule for Visit 2 […]

Setting [1] is: Day 1, 24 hours of QID dosing, N = 12, vehicle +0.1, P 0.006.

For the compound `CC(C)(O)c1nc2ccc(Cl)cc2cc1N` [reproxalap, Reproxalap], under setting [1], the “Change From Baseline, OD4S: Dryness (0-5)” value was −1.2 and the “Change From Baseline, OD4S: Grittiness (0-5)” value was −1.1. Moreover, the “Change From Baseline, OD4S: Discomfort (0-5)” value (Day 1, 24 hours of QID dosing, N = 12, vehicle +0.4, P 0.003) is −0.7. Also, the “Change From Baseline, Ocular Discomfort Scale (0-4)” value (Day 1, 24 hours of QID dosing, N = 12, vehicle +0.4, P 0.07) is on record as −0.7. Moreover, the “Change From Baseline, OD4S: Sting (0-5)” value (Day 1, 24 hours of QID dosing, N = 12, vehicle +0.4, P 0.23) is −0.1. In addition, the “Change From Baseline, OD4S: Burn (0-5)” value (Day 1, 24 hours of QID dosing, N = 12, vehicle +0.8, P 0.07) is given as −0.1. Further, the “Change From Baseline, Schirmer's Test” value (Day 1, improvement after a single dose, N = 12, vehicle +1.3, P 0.30) is “+3.4 mm”. Besides, the “Change From Baseline, VAS Dryness (0-100)” value (after environmental dosing, Day 1, 24 hours of QID dosing, 0.25% reproxalap, N = 12, vehicle +2, P 0.003) was −26. Moreover, where the note is “dry eye chamber”, the “onset of acute improvements in ocular symptoms and objective sign after administration” value is listed as “within minutes”. Further, the “Ocular Discomfort Score vs vehicle” value (dry eye chamber, run-in cohort, p<0.0001) is “statistically significant improvement over vehicle”. The “VAS Ocular Dryness vs vehicle” value (dry eye chamber, run-in cohort, p=0.001) is “statistically significant improvement over vehicle”. Moreover, under “dry eye chamber, run-in cohort, p=0.03”, the “ocular redness vs vehicle” value is on record as “statistically significant improvement over vehicle”.
